Assay results from paper PMC11148078, “Potent activity of polymyxin B is associated with long-lived super-stoichiometric accumulation mediated by weak-affinity binding to lipid A” (Nature Communications, 2024).
Bridge positions count the residues as written; N and C are the ends. Square brackets hold non-standard residues; d marks the D form. Peptide text beside a SMILES is read from it. * marks the point of attachment. X1 = CC[C@H](C)CCCCC(=O)*; Dab = NCC[C@H](N)C(=O)O

Test system: LPS (rough-LPS extracted from E. coli F583, Rd mutant)
Experiment: Mechanistic SPR study, purified LPS
Assay type: binding
Conditions: for Rmax normalized by molecular weight ratio PMB:PMBN: LPS surface
Protocol: OMV-coated and whole cell-coated C1 chips were prepared as already described with the following changes and LPS-coated surfaces were prepared identically but with rough-LPS extracted from E. coli F583 (Rd mutant, Sigma #L6893). For LPS, cloudy colloid suspension (above its CMC, ~1 mg/ml) contains LPS micelles that were injected and captured. For all formats, sample buffer and running buffer were composed of Dulbecco’s phosphate-buffered salt solution containing 0.0005% tween-80 (Sigma), 1 mM calcium and 0.5 mM magnesium (Fisher Scientific), pH 7.4. Analysis and compartment temperatures were both set to 37 °C. Freshly prepared OMV-coated or whole cell-coated sensing surfaces were employed for each injection of polymyxin B while LPS-coated sensing surfaces could be fully regenerated by injecting 50 mM CHAPS. Reversibly bound PMBN could be reinjected over all surfaces without requiring regeneration as it fully dissociated within a few minutes.
Serial doubling dilutions of PMBN were injected from […] over whole cells and OMVs at […] for 1 min (Fig. 3A, B). This was repeated over LPS-coated sensing surfaces and, in this case, serial doubling dilutions of PMBN were injected from 5 mM to 0.625 mM for 30 s at […], immediately prior to injection of […] polymyxin B for 200 s at […] (Fig. 3D).
Fresh sensing surfaces coated with whole cells and OMVs were prepared and 325 nM polymyxin B was injected at […] for 120 s over both. This injection was repeated after a long delay, and without regeneration, in order to allow free sites to become available thereby resulting in two polymyxin B binding curves for each sensing surface (Fig. 3E, F). A fresh LPS-coated surface was prepared and polymyxin B was injected using SCK injection mode over a serial doubling dilution range from 625 nM to 39 nM.
Section 1 - Mechanistic studies of polymyxins
The interaction models introduced here (Eqn (S1-S3)) are annotated in terms of binding of polymyxin B (PMB) to LPS but also apply to any other affinity binding pair. Molar concentrations of bound PMB are converted to SPR response as R = G.MW.[PMB], where MW is the molecular weight of PMB, and G is a mass-to-response conversion factor. A full quantitative interpretation of SPR sensitivity has been reported1. In a general case, a protein concentration of 0.01 (g/L) produces a response of 1 response unit (RU) yielding the proportionality constant G=100 (L/g).
Here, we assume protein is distributed uniformly within a […] thick hydrogel, dissolved in buffer at near physiological salt concentrations in the absence of high concentrations of high refractive index substances, such as glycerol and DMSO. This calibration may be adjusted for variability in the refractive index increment when working with buffers or other classes of molecules such as nucleic acids, polysaccharides, or drug-like molecules. In addition, binding interactions confined to planar sensing surfaces (i.e., no hydrogel matrix) results in a 1.3-fold increased response due to minimal decay in SPR sensitivity when close to the sensing surface (e.g., < 10 nm). Change in protein accumulation over time produces responses that are indicated here by a time subscript (e.g., R(t)). A simple 1:1 model for binding of PMB to LPS to form an affinity complex PMBL is given by the pseudo-first-order model defined by Eqn (S1). dR/dt = (kon.[PMB]i.(Rmax-R(t)) -koff.R(t)) Eqn (S1)
Where R is the SPR response for accumulation of affinity complex PMBL. [PMB]i is the injected concentration of PMB and Rmax is the saturation response assuming full target occupancy. This model assumes that mass transport of PMB within the flow cell, which governs the rate of exchange of PMB between the bulk liquid and the sensing surface, is non-limiting. However, this […]
in the 1:1 two-compartment model in Eqn (S2). dR/dt = (kon.[PMB].(Rmax-R(t)) -koff.R(t)) + kt.([PMB]i(t) – [PMB]) Eqn (S2) […]

[1] = LPS pre-saturated with polymyxin B

| SMILES | change in affinity and binding capacity after pre-saturation [1] | fold loss in affinity [1] | fold loss in binding capacity [1] | Rmax normalized by molecular weight ratio PMB:PMBN | consumption of available LPS (immediately after polymyxin B saturation) | Kd (two LPS densities, pre-saturated with polymyxin B, SCK from 625 nM, Eq. S3, (± SE)) |
| --- | --- | --- | --- | --- | --- | --- |
| CC(C)C[C@@H]1NC(=O)[C@@H](Cc2ccccc2)NC(=O)[C@H](CCN)NC(=O)[C@@H](NC(=O)[C@H](CCN)NC(=O)[C@@H](N)[C@@H](C)O)CCNC(=O)[C@H]([C@@H](C)O)NC(=O)[C@H](CCN)NC(=O)[C@H](CCN)NC1=O [PMBN] (H-T[Dab][Dab][Dab][dF]L[Dab][Dab]T; lactam 3-C) | two-fold drop in both affinity and binding capacity | 2 fold | 2 fold | 415 RU |  |  |
| CC[C@H](C)CCCCC(=O)N[C@@H](CCN)C(=O)N[C@H](C(=O)N[C@@H](CCN)C(=O)N[C@H]1CCNC(=O)[C@H]([C@@H](C)O)NC(=O)[C@H](CCN)NC(=O)[C@H](CCN)NC(=O)[C@H](CC(C)C)NC(=O)[C@@H](Cc2ccccc2)NC(=O)[C@H](CCN)NC1=O)[C@@H](C)O [Polymyxin B] (X1-[Dab]T[Dab][Dab][Dab][dF]L[Dab][Dab]T; lactam 4-C (inferred); N-terminus assumed) |  |  |  | 407 RU | ~ 40% | 127 nM |
